Patent publication US20220251141A1, “IMMUNOMODULATORS” (Bristol-Myers Squibb Company, priority 2019, published 2022)
Numbered stars: 1 amine (or outer) side, 2 acyl side, 3 side chain; on linkers, the order of the positions; unused ones are H or OH. Bridge positions count the residues as written; N and C are the ends. Square brackets hold non-standard residues; d marks the D form. Side chains are listed from the residue outwards. Peptide text beside a SMILES is read from it. * marks the point of attachment. Trp(1-CH2CO2Me) = COC(=O)Cn1cc(C[C@H](N)C(=O)O)c2ccccc21; Trp(1-CH2COOH) = N[C@@H](Cc1cn(CC(=O)O)c2ccccc12)C(=O)O; NHCH2CH2Ph(3,4-OCH2O) = c1cc2c(cc1CCN*)OCO2; X12 = CNC(=S)NCC[C@H](N[*:1])C(=O)[*:2]; X11 = CNC(=S)NC[C@H](N[*:1])C(=O)[*:2]; Dab(CONH2) = NC(=O)NCC[C@H](N)C(=O)O; NHCHPh2 = c1ccc(C(N*)c2ccccc2)cc1; Hyp = O=C(O)[C@@H]1C[C@@H](O)CN1; NMeNle = CCCC[C@H](NC)C(=O)O; NMeA = CN[C@@H](C)C(=O)O; Dab = NCC[C@H](N)C(=O)O; Dap = NC[C@H](N)C(=O)O; NH(heptyl) = CCCCCCCN*; CO = O=C([*:1])[*:2]; N(Me)OMe = CON(C)*; X1 = CC(=O)NC(=O)*

Target: T1, PD-1/PD-L1 (Homo sapiens, UniProt Q9NZQ7)
T1 construct: TVMV protease site linker (C); made in house; host or cells: HEK293T cells
Test: PD-1/PD-L1 Homogenous Time-Resolved Fluorescence (HTRF) binding assay
Details: PD-L1-His 10 nM final, PD-1-Ig 20 nM final; inhibitors pre-incubated with PD-L1-His for 15 m
From the text: The ability of the compounds of formula (I) to bind to PD-L1 was investigated using a PD-1/PD-L1 Homogenous Time-Resolved Fluorescence (HTRF) binding assay.
The interaction of PD-1 and PD-L1 can be assessed using soluble, purified preparations of the extracellular domains of the two proteins. The PD-1 and PD-L1 protein extracellular domains were expressed as fusion proteins with detection tags, for PD-1, the tag was the Fc portion of Immunoglobulin (PD-1-Ig) and for PD-L1 it was the 6 histidine motif (PD-L1-His). All binding studies were performed in an HTRF assay buffer consisting of dPBS supplemented with 0.1% […] bovine serum albumin and 0.05% (v/v) Tween-20. For the h/PD-L1-His binding assay, inhibitors were pre-incubated with PD-L1-His (10 nM final) for 15 m in 4 μl of assay buffer, followed by addition of PD-1-Ig (20 nM final) in 1 μl of assay buffer and further incubation for 15 m. HTRF detection was achieved using europium cryptate-labeled anti-Ig (1 nM final) and allophycocyanin (APC) labeled anti-His (20 nM final). Antibodies were diluted in HTRF detection buffer and 5 μl was dispensed on top of the binding reaction. The reaction mixture was allowed to equilibrate for 30 minutes and the resulting signal (665 nm/620 nm ratio) was obtained using an EnVision fluorometer. Additional binding assays were established between the human proteins PD-1-Ig/PD-L2-His (20 & 5 nM, respectively) and CD80-His/PD-L1-Ig (100 & 10 nM, respectively).
Recombinant Proteins: Human PD-1 (25-167) with a C-terminal human Fc domain of immunoglobulin G (Ig) epitope tag [hPD-1 (25-167)-3S-IG] and human PD-L1 (18-239) with a C-terminal His epitope tag [hPD-L1(18-239)-TVMV-His] were expressed in HEK293T cells and purified sequentially by Protein A affinity chromatography and size exclusion chromatography. Human PD-L2-His and CD80-His was obtained through commercial sources.
Table 3 lists the IC50 values for representative examples of this disclosure measured in the PD-1/PD-L1 Homogenous Time-Resolved Fluorescence (HTRF) binding assay.

Question: How did the IC50 turn out when CCCC[C@H]1C(=O)N(C)[C@@H](CCCC)C(=O)N[C@@H](CC(C)C)C(=O)N[C@H](C(=O)NCC(N)=O)CSCC(=O)N[C@@H](Cc2ccc(O)cc2)C(=O)N(C)[C@@H](C)C(=O)N[C@H](CC(N)=O)C(=O)N2CCC[C@H]2C(=O)N[C@@H](CNC(=S)NC)C(=O)N[C@@H](CC(C)C)C(=O)N2C[C@H](O)C[C@H]2C(=O)N[C@@H](Cc2c[nH]c3ccccc23)C(=O)N[C@@H](CCNC(=S)NC)C(=O)N[C@@H](Cc2cn(CC(=O)O)c3ccccc23)C(=O)N1C [Example 1027] ({CH2CO}-Y[NMeA][dN]P[X11]L[Hyp]W[X12][Trp(1-CH2COOH)][NMeNle][NMeNle]LCG-NH2; thioether N-14) was run?
Answer: 2 nM

Question: For CCCC[C@H]1C(=O)N(C)[C@@H](CCCC)C(=O)N[C@@H](CC(C)C)C(=O)N[C@H](C(=O)NCC(N)=O)CSCC(=O)N[C@@H](Cc2ccc(O)cc2)C(=O)N(C)[C@@H](C)C(=O)N[C@@H](CC(N)=O)C(=O)N2CCC[C@H]2C(=O)N[C@@H](CNC(=O)NCC)C(=O)N[C@@H](CC(C)C)C(=O)N2C[C@H](O)C[C@H]2C(=O)N[C@@H](Cc2c[nH]c3ccccc23)C(=O)N[C@@H](CCNC(=O)NCC)C(=O)N[C@@H](Cc2cn(CC(=O)O)c3ccccc23)C(=O)N1C [Example 1029] ({CH2CO}-Y[NMeA]NP[Dap]([CO-NHEt])L[Hyp]W[Dab]([CO-NHEt])[Trp(1-CH2COOH)][NMeNle][NMeNle]LCG-NH2; thioether N-14), which IC50 is on record?
Answer: 4.9 nM

Question: How did the IC50 turn out when CCCC[C@H]1C(=O)N(C)[C@@H](CCCC)C(=O)N[C@@H](CC(C)C)C(=O)N[C@H](C(=O)NCC(N)=O)CSCC(=O)N[C@@H](Cc2ccc(O)cc2)C(=O)N(C)[C@@H](C)C(=O)N[C@@H](CC(N)=O)C(=O)N2CCC[C@H]2C(=O)N[C@@H](CNC(=O)NC(C)=O)C(=O)N[C@@H](CC(C)C)C(=O)N2C[C@H](O)C[C@H]2C(=O)N[C@@H](Cc2c[nH]c3ccccc23)C(=O)N[C@@H](CCNC(N)=O)C(=O)N[C@@H](Cc2cn(CC(=O)O)c3ccccc23)C(=O)N1C [Example 1030] ({CH2CO}-Y[NMeA]NP[Dap](X1)L[Hyp]W[Dab(CONH2)][Trp(1-CH2COOH)][NMeNle][NMeNle]LCG-NH2; thioether N-14) was run?
Answer: 4 nM

Question: CCCC[C@H]1C(=O)N(C)[C@@H](CCCC)C(=O)N[C@@H](CC(C)C)C(=O)N[C@H](C(=O)NCC(N)=O)CSCC(=O)N[C@@H](Cc2ccc(O)cc2)C(=O)N(C)[C@@H](C)C(=O)N[C@@H](CC(N)=O)C(=O)N2CCC[C@H]2C(=O)N[C@@H](CNC(=O)NC(C)=O)C(=O)N[C@@H](CC(C)C)C(=O)N2C[C@H](O)C[C@H]2C(=O)N[C@@H](Cc2c[nH]c3ccccc23)C(=O)N[C@@H](CCNC(=O)NC(C)=O)C(=O)N[C@@H](Cc2cn(CC(=O)O)c3ccccc23)C(=O)N1C [Example 1031] ({CH2CO}-Y[NMeA]NP[Dap](X1)L[Hyp]W[Dab](X1)[Trp(1-CH2COOH)][NMeNle][NMeNle]LCG-NH2; thioether N-14) was tested. Which IC50 did it give?
Answer: 4.7 nM

Question: Which IC50 does the source give for CCCC[C@H]1C(=O)N(C)[C@@H](CCCC)C(=O)N[C@@H](CC(C)C)C(=O)N[C@H](C(=O)NCC(N)=O)CSCC(=O)N[C@@H](Cc2ccc(O)cc2)C(=O)N(C)[C@@H](C)C(=O)N[C@@H](CC(N)=O)C(=O)N2CCC[C@H]2C(=O)N[C@@H](CNC(=O)N(C)C)C(=O)N[C@@H](CC(C)C)C(=O)N2C[C@H](O)C[C@H]2C(=O)N[C@@H](Cc2c[nH]c3ccccc23)C(=O)N[C@@H](CCNC(=O)N(C)C)C(=O)N[C@@H](Cc2cn(CC(=O)O)c3ccccc23)C(=O)N1C [Example 1032] ({CH2CO}-Y[NMeA]NP[Dap]([CO-NMe2])L[Hyp]W[Dab]([CO-NMe2])[Trp(1-CH2COOH)][NMeNle][NMeNle]LCG-NH2; thioether N-14) here?
Answer: 0.74 nM

Question: CCCCCCCNC(=O)NCC[C@@H]1NC(=O)[C@H](Cc2c[nH]c3ccccc23)NC(=O)[C@@H]2C[C@@H](O)CN2C(=O)[C@H](CC(C)C)NC(=O)[C@H](CNC(=O)NCCCCCCC)NC(=O)[C@@H]2CCCN2C(=O)[C@H](CC(N)=O)NC(=O)[C@H](C)N(C)C(=O)[C@H](Cc2ccc(O)cc2)NC(=O)CSC[C@@H](C(=O)NCC(N)=O)NC(=O)[C@H](CC(C)C)NC(=O)[C@H](CCCC)N(C)C(=O)[C@H](CCCC)N(C)C(=O)[C@H](Cc2cn(CC(=O)O)c3ccccc23)NC1=O [Example 1033] ({CH2CO}-Y[NMeA]NP[Dap]([CO-NH(heptyl)])L[Hyp]W[Dab]([CO-NH(heptyl)])[Trp(1-CH2COOH)][NMeNle][NMeNle]LCG-NH2; thioether N-14) was tested. Which IC50 did it give?
Answer: 7.6 nM

Question: How did the IC50 turn out when CCCCCCCNC(=O)NCC[C@@H]1NC(=O)[C@H](Cc2c[nH]c3ccccc23)NC(=O)[C@@H]2C[C@@H](O)CN2C(=O)[C@H](CC(C)C)NC(=O)[C@H](CNC(=O)NCCCCCCC)NC(=O)[C@@H]2CCCN2C(=O)[C@H](CC(N)=O)NC(=O)[C@H](C)N(C)C(=O)[C@H](Cc2ccc(O)cc2)NC(=O)CSC[C@@H](C(=O)NCC(N)=O)NC(=O)[C@H](CC(C)C)NC(=O)[C@H](CCCC)N(C)C(=O)[C@H](CCCC)N(C)C(=O)[C@H](Cc2cn(CC(=O)O)c3ccccc23)NC1=O [Example 1035] ({CH2CO}-Y[NMeA]NP[Dap]([CO-NH(heptyl)])L[Hyp]W[Dab]([CO-NH(heptyl)])[Trp(1-CH2COOH)][NMeNle][NMeNle]LCG-NH2; thioether N-14) was run?
Answer: 8.3 nM

Question: Which IC50 does the source give for CCCC[C@H]1C(=O)N(C)[C@@H](CCCC)C(=O)N[C@@H](CC(C)C)C(=O)N[C@H](C(=O)NCC(N)=O)CSCC(=O)N[C@@H](Cc2ccc(O)cc2)C(=O)N(C)[C@@H](C)C(=O)N[C@@H](CC(N)=O)C(=O)N2CCC[C@H]2C(=O)N[C@@H](CNC(=O)N(C)OC)C(=O)N[C@@H](CC(C)C)C(=O)N2C[C@H](O)C[C@H]2C(=O)N[C@@H](Cc2c[nH]c3ccccc23)C(=O)N[C@@H](CCNC(=O)N(C)OC)C(=O)N[C@@H](Cc2cn(CC(=O)OC)c3ccccc23)C(=O)N1C [Example 1036] ({CH2CO}-Y[NMeA]NP[Dap]([CO-N(Me)OMe])L[Hyp]W[Dab]([CO-N(Me)OMe])[Trp(1-CH2CO2Me)][NMeNle][NMeNle]LCG-NH2; thioether N-14) here?
Answer: 1.4 nM

Question: CCCC[C@H]1C(=O)N(C)[C@@H](CCCC)C(=O)N[C@@H](CC(C)C)C(=O)N[C@H](C(=O)NCC(N)=O)CSCC(=O)N[C@@H](Cc2ccc(O)cc2)C(=O)N(C)[C@@H](C)C(=O)N[C@@H](CC(N)=O)C(=O)N2CCC[C@H]2C(=O)N[C@@H](CNC(=O)NC(c2ccccc2)c2ccccc2)C(=O)N[C@@H](CC(C)C)C(=O)N2C[C@H](O)C[C@H]2C(=O)N[C@@H](Cc2c[nH]c3ccccc23)C(=O)N[C@@H](CCNC(=O)NC(c2ccccc2)c2ccccc2)C(=O)N[C@@H](Cc2cn(CC(=O)O)c3ccccc23)C(=O)N1C [Example 1037] ({CH2CO}-Y[NMeA]NP[Dap]([CO-NHCHPh2])L[Hyp]W[Dab]([CO-NHCHPh2])[Trp(1-CH2COOH)][NMeNle][NMeNle]LCG-NH2; thioether N-14) was tested. Which IC50 did it give?
Answer: 5.1 nM

Question: For CCCC[C@H]1C(=O)N(C)[C@@H](CCCC)C(=O)N[C@@H](CC(C)C)C(=O)N[C@H](C(=O)NCC(N)=O)CSCC(=O)N[C@@H](Cc2ccc(O)cc2)C(=O)N(C)[C@@H](C)C(=O)N[C@@H](CC(N)=O)C(=O)N2CCC[C@H]2C(=O)N[C@@H](CNC(=O)NCCc2ccc3c(c2)OCO3)C(=O)N[C@@H](CC(C)C)C(=O)N2C[C@H](O)C[C@H]2C(=O)N[C@@H](Cc2c[nH]c3ccccc23)C(=O)N[C@@H](CCN)C(=O)N[C@@H](Cc2cn(CC(=O)O)c3ccccc23)C(=O)N1C [Example 1039] ({CH2CO}-Y[NMeA]NP[Dap]([CO-NHCH2CH2Ph(3,4-OCH2O)])L[Hyp]W[Dab][Trp(1-CH2COOH)][NMeNle][NMeNle]LCG-NH2; thioether N-14), which IC50 is on record?
Answer: 1.5 nM
